Measured values as given in EP1304101A1, “Composition and method for use of pyridinium derivatives in cosmetic and therapeutic applications” (Torrent Pharmaceuticals Ltd, priority 2001, dated 2003).

What was measured:
AGE-BSA = target: T1, AGE-BSA (Bos taurus, UniProt P02769); assay: In-vitro AGE breaking activity by ELISA (16 weeks AGE-BSA incubated with test compound); assay type: biochemical, bovine; conditions: for % Breakage: 37°C, 24 hours
T1 construct: Bovine serum albumin (fraction V) (BSA); from tissue
T1 sequence (P02769 25-607): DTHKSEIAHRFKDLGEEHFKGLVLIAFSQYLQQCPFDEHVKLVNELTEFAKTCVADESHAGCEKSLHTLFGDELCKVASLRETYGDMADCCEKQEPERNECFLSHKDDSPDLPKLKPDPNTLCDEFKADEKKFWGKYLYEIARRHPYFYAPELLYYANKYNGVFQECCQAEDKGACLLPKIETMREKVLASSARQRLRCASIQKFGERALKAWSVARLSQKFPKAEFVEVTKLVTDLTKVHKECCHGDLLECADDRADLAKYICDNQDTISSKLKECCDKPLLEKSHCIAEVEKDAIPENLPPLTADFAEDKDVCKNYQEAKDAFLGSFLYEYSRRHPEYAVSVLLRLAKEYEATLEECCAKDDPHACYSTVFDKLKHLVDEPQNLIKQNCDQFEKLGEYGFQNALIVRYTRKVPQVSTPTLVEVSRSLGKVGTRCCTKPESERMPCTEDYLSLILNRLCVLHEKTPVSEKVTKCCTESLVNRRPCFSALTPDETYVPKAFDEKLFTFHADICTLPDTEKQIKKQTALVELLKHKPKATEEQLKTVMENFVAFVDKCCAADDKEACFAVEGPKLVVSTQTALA
Protocol: AGE breaking activity has been confirmed by the screening procedure as mentioned below: • Materials: • Bovine serum albumin (fraction V) (BSA) • Glucose, analytical grade • Phosphate buffered saline (PBS) • Equipment: • Microplate ELISA Reader - Spectramax Plus (Molecular Devices, USA) • Microplate washer, (Bio -Tec Instruments, USA) • pH meter • Methods of experiment: Elisa (Enzyme Linked Immunosorbent Assay) 160 mg/ml of protein, bovine serum albumin, BSA and 1.6M glucose sugar were dissolved in phosphate buffered saline, PBS. Sodium azide was added at 0.02% concentration as a preservative. The solution was filtered asceptically through a 0.22 µM filter and kept for aging at 37°C for 16 weeks. After 16 weeks the solution was dialyzed against PBS, aliquoted and stored at - 20°C.
To determine the AGE breaking activity, 10 µg/ml of the 16 weeks AGE-BSA was incubated with different concentrations of the test compounds at 37°C for 24 hours and AGE breaking activity of the test compounds by ELISA was determined.
Different concentrations of 16 weeks AGE-BSA were coated on a microtitre plate as standard. Each concentration is coated in triplicates. • 2. The test samples were coated on microtitre plate at a concentration of 5 ng. to 20 ng per well in triplicates. • 3. The plate was incubated at 37°C for one hour. • 4. After incubation the plate was washed with PBST (PBS with 0.05% Tween 20). • 5. Blocking with 5% skimmed milk in PBS at 37°C for one hour was done. • 6. The plate was washed with PBST. • 7. Primary antibody against AGE-BSA was added and the plate is incubated at 37°C for one hour. • 8. The plate was washed with PBST • 9. Secondary antibody anti rabbit HRPO (Horse-Radish Per Oxidase) conjugate was added and the plate is incubated at 37°C for one hour. • 10. The plate was washed with PBST. • 11. Colour development with OPD (orthophenylenediamine dihydrochloride) and hydrogen peroxide was done. • 12. OD (optical density) at (450nm reading - 620nm reading) was measured after incubation at 37°C for 15 minutes with Microplate ELISA Reader.
The breaker activity of the compounds were determined by the following formula: % Breaker activity =(OD450-620 Control - OD450-620 Test)/(OD450-620 Control)x 100 [formula] OD450-620Control= Absorbance of 20ng AGE-BSA after incubation at 37°C for 24 hours without test compound OD450-620Test= Absorbance of 20ng AGE-BSA after incubation at 37°C for 24 hours with required concentration of test compound

[1] = Free radical scavenging activity on ABTS radical cation (absorbance at 730nm); assay type: biochemical
Protocol: This method measures the relative ability of free radical scavenging substances to scavenge the ABTS ^.+ i.e. 2,2-Azino-bis-(3-ethyl benzo thiazoline-6-sulfonate) radical cation as compared to a standard amount of standard or free radical scavengers antioxidants. Incubation of ABTS with Peroxidase (metmyoglobin) and hydrogen peroxide results in the production of radical cation ABTS^.+ . This species is blue- green in colour and can be detected at 730nm. Antioxidants or free radical scavengers in the added sample that causes suppression of the color to a degree that is proportional to their concentration.
• A. Phosphate Citrate Buffer (pH 5.0): 48.5ml of 0.1M citric acid with sufficient 0.2M disodium hydrogen phosphate to produce 100 ml. • B. Phosphate Buffer Saline (PBS): Dissolve 40.0g of NaCl, 1.0g of KCI, 1.0g of KH2PO4 and 3.05g of Na2HPO4 in 1 litre milli-Q water. Dilute 200ml of above solution to 1 litre with milli-Q water (pH 7.4-7.6). • C. 3µM stock solution of Peroxidase was prepared in phosphate buffer saline pH 7.4(PBS). • D. 1.08 mM stock solution of Hydrogen peroxide was prepared in phosphate buffer saline pH 7.4 (PBS).
1 tablet (10mg) was dissolved in phosphate citrate buffer (pH 5.0).
5.0ml of ABTS stock solution was diluted with PBS to 20 ml.
320 µg of the enzyme was dissolved in 2.5 ml of PBS.
12µl of Hydrogen Peroxide (30%w/v) was diluted to 100ml with PBS.
0.1mM of stock solution of the drug was prepared which was serially diluted in PBS to get solutions of different concentrations.
To 18ml of ABTS stock solution, 100µl of Horseradish Peroxidase stock solution was added.
As soon as 1.5 ml of hydrogen peroxide solution was added to the above solution, blue-green colour of the ABTS radicals appeared. This solution was incubated at 30°C for 30 min.
980µl of ABTS radical stock solution was added to an eppendorf tube. To it was added 100µl of various PBS solution.
980µl of ABTS radical stock solutions were added to different eppendorf tubes. To it were added 100µl of various concentrations of drug solution.
The absorbance of control and test samples was recorded immediately at 730nm taking PBS as blank.
Calculation: The percent antioxidant activity was calculated according to the formula: % Antioxidant activity = [O.D of test sample/O.D of control*100]-100.

[2] = comparison in words based on Table 2

SMILES | Relative Free Radical Scavenging Activity(%) on ABTS ([1]; 11.5µM) | Relative Free Radical Scavenging Activity(%) on ABTS ([1]; 23.0µM) | Relative Free Radical Scavenging Activity(%) on ABTS ([1]; 46.0µM) | Relative Free Radical Scavenging Activity(%) on ABTS ([1]; 92.5µM) | Relative Free Radical Scavenging Activity(%) on ABTS ([1]; 925µM) | % Breakage (AGE-BSA; 10 mM test compound) | also measured
O=C(C[n+]1cccc(C(=O)NNC(=O)c2ccc[n+](CC(=O)c3ccccc3)c2)c1)c1ccccc1 [Compound 1, N, N'-bis [3-carbonyl-1-(2-phenyl-2-oxoethyl)-pyridinium] hydrazine dibromide] | – | – | – | – | – | – | % Breakage (AGE-BSA; 5 mM test compound): 13%
O=C(NCCOC(=O)c1ccccc1)c1ccc[n+](CC(=O)c2ccc(Cl)cc2Cl)c1.[Br-] [Compound 8, 1-(2-(2',4'-dichlorophenyl) -2-oxoethyl) -3-(2-(benzoyloxy)ethylamino-carbonyl) pyridinium bromide] | 40.8% | 53.7% | 72.6% | 81.2% | 100% | – | –
CC(=O)OCCOC(=O)c1ccc[n+](CC(=O)c2ccccc2)c1.[Br-] [Compound 16, 1-(2-phenyl-2-oxoethyl) -3-(2-(acetoxy)ethyloxycarbonyl) pyridinium bromide] | – | – | – | – | – | 16% | –
CCOC(=O)C[n+]1cccc(C(=O)OCCOC(=O)c2ccccc2)c1.[Br-] [Compound 17, 1-(2-ethoxy-2-oxoethyl) -3-(2-(benzoyloxy)ethyloxycarbonyl) pyridinium bromide] | – | – | – | – | – | 19% | –
O=C(NCCOC(=O)c1ccccc1)c1cc[n+](CC(=O)c2cccs2)cc1.[Br-] [Compound 18, 1-(2-thien-2'-yl-2-oxoethyl)-4-(2-(benzoyloxy)ethylaminocarbonyl) pyridinium bromide] | 41.8% | 59.5% | 75.2% | 91.0% | 100% | – | –
O=C(C[n+]1cccc(C(=O)NCCOC(=O)c2ccccc2)c1)Nc1ccccc1.[Cl-] [Compound 23, 1-(2-phenylamino-2-oxoethyl)-3-((benzoyloxy)ethylaminocarbonyl) pyridinium chloride] | – | – | – | – | – | 37% | % Breakage (AGE-BSA; 25 mM test compound): 90%; AGE breaking activity compared to PTB (AGE-BSA; [2]): superior
Cc1ccc(S(=O)(=O)NNC(=O)c2ccc[n+](CC(=O)Nc3ccccc3)c2)cc1.[Cl-] [Compound 27, 1-(2-phenylamino-2-oxoethyl)-3-((4-methylphenyl)sulfonyl hydrazinocarbonyl) pyridinium chloride] | 43.9% | 55.5% | 75.3% | 99.6% | 100% | – | –
O=C(C[n+]1cccc(C(=O)NNS(=O)(=O)Cc2ccccc2)c1)c1ccccc1.[Br-] [Compound 31, 1-(2-phenyl-2-oxoethyl)-3-((phenylmethyl)sulfonyl hydrazinocarbonyl) pyridinium bromide] | 41.6% | 57.7% | 66.9% | 99.2% | 100% | – | –
O=C(NNC(=O)c1ccc[n+](CC(=O)c2ccco2)c1)c1ccc[n+](CC(=O)c2ccco2)c1 [Compound 32, N, N' - bis [3-carbonyl-1-(2-furan-2'-yl-2-oxoethyl)pyridinium] hydrazine dibromide] | – | – | – | – | – | 14% | –
O=C(CCC1CCCCC1)NNC(=O)c1ccc[n+](CC(=O)c2cccs2)c1.[Br-] [Compound 34, 1-(2-thien-2'-yl-2-oxoethyl)-3-((2-(1-oxo-3-cyclohexyl)-ethyl)-hydrazinocarbonyl)-pyridinium bromide] | 50.3% | 53.8% | 65.4% | 80.4% | 100% | – | –
O=C1CCCC(CCNNC(=O)c2ccc[n+](CC(=O)Nc3ccccc3)c2)C1.[Br-] (centres unmarked) [Compound 35, 1-(2-phenylamino-2-oxoethyl)-3-({2-(1-oxo-3-cyclohexyl)-ethyl} -hydrazinocarbonyl}-pyridinium bromide] | 50.5% | 63.4% | 80.9% | 90.6% | 100% | – | –
O=C(NCCOC(=O)c1ccccc1)c1ccc[n+](CC(=O)c2cccs2)c1.[Br-] [Compound 36, 1-(2-thien-2'-yl-2-oxoethyl)-3-[2-(benzoyloxy)ethylaminocarbonyl]-pyridinium bromide] | 27.6% | 59.2% | 74.2% | 83.9% | 100% | – | –
COCCNC(=O)c1ccc[n+](CC(=O)NC2CC2)c1.[Cl-] [Compound 40, 1-(2-cyclopropylamino-2-oxoethyl)-3-(2-methoxyethylaminocarbonyl)-pyridinium chloride] | – | – | – | – | – | 12.38% | –
O=C(NNC(=O)c1cccnc1Cl)c1ccc[n+](CC(=O)c2cccs2)c1 [Compound 42, 1-(2-thien-2'yl-2-oxoethyl)-3-(2-(2-chloro-3-pyridoyl)hydrazinocarbonyl) -pyridinium chloride] | – | – | – | – | – | 12.51% | –
CC(C)NC(=O)C[n+]1cccc(C(=O)NNS(C)(=O)=O)c1.[Cl-] [Compound 43, 1-(2-isopropylamino-2-oxoethyl)-3-(2-methylsulfonylhydrazinocarbonyl) -pyridinium chloride] | – | – | – | – | – | 10.85% | –
COCCNC(=O)c1cc(Br)c[n+](CC(=O)c2cccs2)c1 [Compound 47, 1-(2-thien-2'-yl-2-oxoethyl)-3-((2-methoxyethyl)aminocarbonyl)-5-bromo pyridinium chloride] | – | – | – | – | – | 32.38% | AGE breaking activity compared to PTB (AGE-BSA; [2]): superior
Cc1ccc(C(=O)NNC(=O)c2ccc[n+](CC(=O)c3cccs3)c2)c[n+]1CC(=O)c1cccs1 [Compound 49, 1-[1-(2-thien-2'-yl-2-oxoethyl)-6-methyl-3-carbonylpyridinium]-2-[1-(2-Thien-2' -yl-2-oxoethyl)-3-carbonylpyridinium] hydrazine dichloride] | – | – | – | – | – | – | % Breakage (AGE-BSA; 2.5 mM test compound): 85.67%; AGE breaking activity compared to PTB (AGE-BSA; [2]): superior; potency (AGE breaking activity compared to PTB) (AGE-BSA; [2]): significantly much higher
CCOC(=O)C1CCCN1C(=O)C[n+]1cccc(C(=O)NNS(C)(=O)=O)c1.[Cl-] (centres unmarked) [Compound 52, 1-(2-(2-ethoxycarbonylpyrrolidin-1-yl)-2-oxoethyl)-3-(methanesulfonyl hydrazinocarbonyl) pyridinium chloride] | – | – | – | – | – | 25.34% | –
O=C=Nc1ccc[n+](CC(=O)c2ccc(Cl)cc2Cl)c1.[Br-] [Compound 82, 3-Carbonylamino-1-(2-(2,4-dichlorophenyl)-2-oxoethyl)-pyridinium bromide] | 26.0% | 44.3% | 62.7% | 75.5% | 100% | – | –
CCCCNC(=O)c1ccc[n+](CC(=O)c2ccc(Cl)cc2Cl)c1.[Br-] [Compound 97, 1-(2 - (2, 4 - Dichlorophenyl) - 2-oxoethyl) - 3-(n-butylamino-carbonyl) pyridinium bromide] | 16.5% | 27% | 37.8% | 44.5% | 97.8% | – | –
O=C(C[n+]1cccc(C(=O)c2ccccc2)c1)c1ccccc1.[Br-] [Compound 98, 1-(2-Phenyl-2-oxoethyl)-3-(1-phenyl-1-oxomethyl) pyridinium bromide] | 7.1% | 26.9% | 51.1% | 78.6% | 99.1% | – | –
NC(=O)c1cccnc1 [Niacinamide, reference compound] | 0.0% | 2.2% | 3.8% | 3.8% | 9.2% | – | –
